The IC50 is the midpoint of a concentration-inhibition curve.

Each structure is given as a SMILES string. Where “and” joins values, the source holds several entries; their conditions need not be identical. Identical values can stand only once. Calls of active or inactive are those of the source.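 How the source made its calls: active means IC50 under 30000 nM, about half a log past the top tested dose; inactive means the rest.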

This is an account of results in PubChem BioAssay AID1508599 (Sanford-Burnham Center for Chemical Genomics, 2020).

For the experiment, the target named is Baculoviral IAP repeat-containing protein 2 (Homo sapiens) (UniProt Q13490). Description: cIAP1 BIR3–SMAC binding inhibitors, SAR follow-up, biochemical (AID 1508599). As to conditions: cIAP1 BIR3 / rhodamine-SMAC peptide fluorescence polarization. Background: Fluorescence polarisation rises when a labelled molecule tumbles more slowly, as on binding a larger partner.
Sequence of Baculoviral IAP repeat-containing protein 2 (Homo sapiens) (Q13490 whole entry, looked up): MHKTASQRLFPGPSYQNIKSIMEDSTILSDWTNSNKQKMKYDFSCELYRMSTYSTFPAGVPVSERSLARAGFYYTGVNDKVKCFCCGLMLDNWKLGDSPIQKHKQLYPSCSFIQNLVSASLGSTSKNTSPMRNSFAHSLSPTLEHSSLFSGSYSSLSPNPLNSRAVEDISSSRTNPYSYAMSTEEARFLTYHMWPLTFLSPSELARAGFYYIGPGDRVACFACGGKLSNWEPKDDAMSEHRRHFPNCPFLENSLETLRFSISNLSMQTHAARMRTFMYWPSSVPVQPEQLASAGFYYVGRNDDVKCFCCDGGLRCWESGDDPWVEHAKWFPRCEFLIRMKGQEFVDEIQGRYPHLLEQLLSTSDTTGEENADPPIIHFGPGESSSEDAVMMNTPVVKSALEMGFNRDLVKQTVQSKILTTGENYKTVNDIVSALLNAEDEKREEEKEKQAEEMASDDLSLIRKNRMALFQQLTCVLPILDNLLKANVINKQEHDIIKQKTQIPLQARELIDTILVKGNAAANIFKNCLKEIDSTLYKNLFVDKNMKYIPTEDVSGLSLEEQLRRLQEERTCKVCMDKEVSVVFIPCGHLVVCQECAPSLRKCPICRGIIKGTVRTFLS
Take `CN[C@@H](C)C(=O)N[C@H]1CCCN[C@H]2CCC(C(=O)N[C@H]3CCCc4ccccc43)N2C1=O` (some centres not stated): the IC50 is 789 nM.
For `CN[C@@H](C)C(=O)N[C@H]1CCO[C@H]2CC3(CCCC3)C(C(=O)N[C@@H]3CCCc4ccccc43)N2C1=O` (some centres not stated), the IC50 is 1350 nM.
As to `CN[C@@H](C)C(=O)N[C@H]1Cc2cc(O)ccc2[C@H]2CC(C)(C)C(C(=O)N[C@@H]3CCCc4ccccc43)N2C1=O` (some centres not stated), the IC50 result is “inactive”.
For `CN[C@@H](C)C(=O)N[C@@H]1C(=O)N2C(C(=O)NC(c3ccccc3)c3ccccc3)CC[C@@H]2O[C@@H]1C` (some centres not stated), the IC50 is 235 nM.
For `CN[C@@H](C)C(=O)N[C@H]1CCSC2CCCC(C(=O)N[C@@H]3CCCc4ccccc43)N2C1=O` (some centres not stated), the IC50 was 363 nM and 2520 nM and 605 nM.
For `CN[C@@H](C)C(=O)N[C@H]1CCO[C@H]2CCC(C(=O)NC(c3ccccc3)c3ccccc3)N2C1=O` (some centres not stated), the IC50 was 294 nM.
Take `CN[C@@H](C)C(=O)N[C@H]1CCO[C@H]2c3ccccc3C(C(=O)N[C@@H]3CCCc4ccccc43)N2C1=O` (some centres not stated): the IC50 was 8440 nM.
As to `CN[C@@H](C)C(=O)N[C@H]1CCO[C@H]2CC[C@@H](C(=O)N[C@@H]3CCOc4ccccc43)N2C1=O`, the IC50 is 1300 nM.
For the compound `CN[C@@H](C)C(=O)N[C@H]1CCS[C@H]2CC[C@H](C(=O)N[C@@H]3CCCc4ccccc43)N2C1=O`, the IC50 is 1000 nM.
As to `CN[C@@H](C)C(=O)N[C@H]1CCO[C@H]2CC[C@@H](C(=O)n3ccc4ccccc43)N2C1=O`, the IC50 was 1210 nM.
Turning to `CN[C@@H](C)C(=O)N[C@H]1CCO[C@H]2CC(C)(C)[C@@H](C(=O)N[C@@H]3CCCc4ccccc43)N2C1=O`, the IC50 is 210 nM.
In the case of `CN[C@@H](C)C(=O)N[C@H]1Cc2c([nH]c3ccccc23)[C@H]2CCC(C(=O)N[C@@H]3CCCc4ccccc43)N2C1=O` (some centres not stated), the IC50 is 93 nM.
As for `CN[C@@H](C)C(=O)N[C@H]1CCS(=O)(=O)[C@H]2CC[C@H](C(=O)N[C@@H]3CCCc4ccccc43)N2C1=O`, the IC50 is > 100000 nM (inactive).
Regarding `CN[C@@H](C)C(=O)N[C@H]1CCCN(C(C)=O)C2CCC(C(=O)N[C@H]3CCCc4ccccc43)N2C1=O` (some centres not stated), the IC50 is 272 nM and 37 nM.
For `CN[C@@H](C)C(=O)N[C@H]1CCS(=O)(=O)[C@H]2CC(C)(C)[C@@H](C(=O)N[C@@H]3CCCc4ccccc43)N2C1=O`, the IC50 was > 100000 nM (inactive).
On to `CC(=O)N(C)[C@@H](C)C(=O)N[C@H]1CCCN(C(C)=O)[C@H]2CCC(C(=O)Nc3cccc4ccccc34)N2C1=O` (some centres not stated), for which the IC50 is 6850 nM.
With `CN[C@@H](C)C(=O)N[C@H]1Cc2cc(O)c(O)cc2[C@H]2CC(C)(C)C(C(=O)N[C@@H]3CCCc4ccccc43)N2C1=O` (some centres not stated) the figure was > 100000 nM (inactive); with `CN[C@@H](C)C(=O)N[C@H]1CCO[C@H]2CC[C@@H](C(=O)N[C@@H]3CCCc4ccccc43)N2C1=O`, 740 nM; with `CN[C@@H](C)C(=O)N[C@H]1CCS[C@H]2CCC(C(=O)N[C@H]3CCCc4ccccc43)N2C1=O` (some centres not stated), 157 nM.
On to `CN[C@@H](C)C(=O)N[C@H]1CCS[C@H]2CC[C@@H](C(=O)N[C@@H]3CCCc4ccccc43)N2C1=O`, for which the IC50 was 140 nM.
In the case of `CN[C@@H](C)C(=O)N[C@@H]1C(=O)N2C(C(=O)Nc3cccc4ccccc34)CC[C@@H]2O[C@@H]1C` (some centres not stated), the IC50 is 78 nM.
As to `CN[C@@H](C)C(=O)N[C@H]1CCO[C@H]2CCC(C(=O)Nc3cccc4ccccc34)N2C1=O` (some centres not stated), the IC50 is 263 nM.
In the case of `CN[C@@H](C)C(=O)N[C@H]1CCS(=O)(=O)[C@H]2CC[C@@H](C(=O)N[C@@H]3CCCc4ccccc43)N2C1=O`, the IC50 was 11600 nM.
For `CN[C@@H](C)C(=O)N[C@H]1CC(=O)N[C@H]2CC(C)(C)C(C(=O)N[C@@H]3CCCc4ccccc43)N2C1=O` (some centres not stated) the value was 2000 nM and 1790 nM; for `CN[C@@H](C)C(=O)N[C@H]1CCO[C@H]2CC[C@@H](C(=O)Nc3cccc4ccccc34)N2C1=O`, 47 nM; for `CN[C@@H](C)C(=O)N[C@H]1CCCN[C@H]2CCC(C(=O)Nc3cccc4ccccc34)N2C1=O` (some centres not stated), 21100 nM.
In the case of `CN[C@@H](C)C(=O)N[C@H]1CCO[C@H]2CC[C@H](C(=O)n3ccc4ccccc43)N2C1=O`, the IC50 is 147 nM.
Take `CN[C@@H](C)C(=O)N[C@H]1CCN[C@H]2CCC(C(=O)N[C@@H]3CCCc4ccccc43)N2C1=O` (some centres not stated): the IC50 is 113 nM.
Regarding `CN[C@@H](C)C(=O)N[C@H]1Cc2cccc(O)c2[C@H]2CC(C)(C)C(C(=O)N[C@@H]3CCCc4ccccc43)N2C1=O` (some centres not stated), the IC50 is 14900 nM.
Consider `CN[C@@H](C)C(=O)N[C@H]1CCO[C@H]2CC(C)(C)C(C(=O)Nc3ccccc3SSc3ccccc3NC(=O)C3N4C(=O)[C@@H](NC(=O)[C@H](C)NC)CCO[C@H]4CC3(C)C)N2C1=O` (some centres not stated), for which the IC50 was 505 nM.
For `CN[C@@H](C)C(=O)N[C@H]1CCO[C@H]2CC[C@H](C(=O)N[C@@H]3CCOc4ccccc43)N2C1=O`, the IC50 was > 100000 nM (inactive).
Take `CN[C@@H](C)C(=O)N[C@H]1CCO[C@H]2CCC(C(=O)N[C@H]3CCCc4ccccc43)N2C1=O` (some centres not stated): the IC50 was 72 nM.
